From paper PMC5501099 (Malaria Journal, 2017)

Experiments:
[1] = cited from earlier work
[2] = system: Plasmodium vivax; experiment: Effect of ivermectin on Plasmodium vivax sporogony in Anopheles dirus; assay type: in vivo; conditions: An. dirus; for P. vivax oocyst prevalence reduced by: dissected day 7
Protocol: Mosquitoes reared in Bangkok were transported to a field laboratory at the Mae Sot Malaria Medical Clinic in Mae Sot, Tak Province. Plasmodium vivax-infected blood was collected from malaria-infected patients reporting to malaria clinics operated by the Thailand Ministry of Public Health in Tak Province (protocol WRAIR#1949A). Patient plasma was removed and replaced by centrifuging blood samples at 3000 rpm for 5 min, plasma removed and blood washed with RPMI twice, and malaria-naïve AB+ serum was added at a 50:50 ratio [30]. One millilitre of blood was fed to each group of 100 mosquitoes in 0.5-l cardboard containers and unfed mosquitoes were removed. Mosquitoes were maintained on 10% sucrose ad libitum at the Mae Sot field insectary (25 ± 1 °C and 70 ± 10% relative humidity, light 12 h:12 h dark photoperiod). Once infected with P. vivax, blood-fed mosquitoes were securely transported back to Bangkok and maintained in a separate insectary (25 ± 1 °C and 70 ± 10% relative humidity, light 12 h:12 h dark photoperiod).
Unfed mosquitoes were removed from the feeding containers after each blood meal. Mosquitoes from the DPI 0 and DPI −3 feeding schedules were dissected 7 days post parasite ingestion to enumerate oocysts. Midguts were dissected with minuten pins into saline on a microscope slide and stained with 0.4% mercurochrome and viewed at 40× magnification with a compound microscope to determine oocyst prevalence and intensity. Approximately 25 mosquitoes were dissected from each control and treatment group at each dissection time point. Dissectors were blinded to treatment groups. Due to lack of initial mosquito blood feeding and mosquitoes lost to experimental mortality and oocyst dissections at day 7 post parasite feeding, not enough mosquitoes remained at day 14 post parasite feeding to determine sporozoite prevalence for the DPI −3 and 0 experiments. Mosquitoes from the DPI 6 and 9 experiments were dissected 14 days post parasite ingestion to determine sporozoite prevalence. Salivary glands were dissected with minuten pins into saline on a microscope slide and viewed at 40× magnification to determine sporozoite prevalence.
(§1) A non-linear mixed effects model with probit analysis was used to calculate LC50, LC25 and LC5 values with Statistical Analysis Software (SAS Institute Inc, Cary, NC, USA) as described previously. Hazard ratios for mosquito mortality at day 7 post blood meal were calculated using Poisson regression analysis with STATA version 12.1 (StataCorp LLC, College Station, TX, USA). Oocyst and sporozoite prevalence (i.e. proportion of infected mosquitoes) was compared by Fishers Exact test. Oocyst intensity (i.e. number of oocysts per infected mosquito) was compared by the Mann–Whitney U test. To determine if P. vivax infection altered mosquito survivorship post-ivermectin ingestion survival data were analysed by the Mantel–Cox method. The Fishers Exact, Mann–Whitney U, and survival analysis data were analysed with Prism 7 (GraphPad Software Inc, San Diego, CA, USA).

[3] = system: Anopheles dirus; experiment: Effect of Plasmodium vivax infection on Anopheles dirus survivorship response to ivermectin; assay type: in vivo; conditions: ivermectin LC25 co-ingested with parasites on DPI 0 vs ivermectin LC25 only; 14 days
From the text: Anopheles dirus were fed a P. vivax blood meal or a non-infectious blood meal prepared from uninfected donor blood and serum was replaced as described above. […] After blood feeding, 50 blood fed females from each treatment group were transferred to a new 0.5-l cardboard carton. Mosquito survivorship was monitored daily and dead mosquitoes were removed from the containers until day 14 post blood meal. Any live mosquitoes at day 14 were frozen and counted as alive. A separate group of mosquitoes were fed a P. vivax control blood meal to ensure that the P. vivax sample was infectious to mosquitoes and only isolates that successfully infected at least 80% of An. dirus were included in the results.
as §1, with “Oocyst and sporozoite prevalence (i.e. proportion of infected mosquitoes) was compared by Fishers Exact test. Oocyst intensity (i.e. number of oocysts per infected mosquito) was compared by the Mann–Whitney U test.” left out

[4] = system: Anopheles sawadwongporni; experiment: Ivermectin lethal concentration / survivorship, membrane blood feeding; assay type: in vivo; conditions: An. sawadwongporni
Protocol: (§2) Powdered formulation of ivermectin compound was obtained from Sigma-Aldrich (St. Louis, USA). […] Control blood meals consisted of previously frozen DMSO diluted in PBS to match the ratio of DMSO and PBS fed to mosquitoes in the ivermectin-containing blood meals.
(§3) After blood feeding via a membrane feeder, unfed mosquitoes were removed and discarded. Blood-fed mosquitoes were held in 3.5-l plastic containers with access to 10% sucrose and kept in an incubator at 25 ± 1 °C and 70 ± 10% relative humidity, on a 12 h light:12 h dark photoperiod. Mosquito survivorship was monitored for 7 days, every 24 h dead mosquitoes were removed and recorded, and on day 7 all remaining mosquitoes were frozen and counted as alive.
as §1

[5] = system: Anopheles dirus; experiment: as above; assay type: in vivo; conditions: An. dirus
Protocol: as §2, §3, §1

[6] = system: Anopheles campestris; experiment: as above; assay type: in vivo; conditions: An. campestris
Protocol: as §2, §3, §1

[7] = single dose of 800 µg/kg, literature parameters of American healthy volunteers; cited from earlier work
[8] = ivermectin LC5 at DPI −3, not significant

For ivermectin, the “Safety of repeated administration” value ([1]; 400 µg/kg every two weeks for 12 weeks, adults, Sri Lanka and Brazil) is listed as “safe”, the Safety and tolerability ([1]; doses up to 2000 µg/kg, healthy volunteers) is listed as “safe and well tolerated” and the “P. vivax oocyst prevalence reduced by” value ([2]; ivermectin LC5 (22.1 ng/ml) co-ingested at DPI 0) is listed as 33.6%. The “P. vivax mean oocyst intensity reduced by” value ([2]; ivermectin LC5 at DPI 0) was 24.7%, the “P. vivax oocyst intensity increased by” value [2, 8] was 24.2% and the “P. vivax oocyst prevalence decreased by” value [2, 8] was 3.9%. For the same substance, the “P. vivax oocyst prevalence reduced by” value ([2]; ivermectin LC25 (38.1 ng/ml) co-ingested at DPI 0) was 44.7%, the “P. vivax mean oocyst intensity reduced by” value ([2]; ivermectin LC25 at DPI 0) was 51.2% and the “P. vivax sporozoite prevalence decreased by” value ([2]; ivermectin LC25 at DPI 6, dissected day 14, not significant) was 4.5%. The “P. vivax sporozoite prevalence increased by” value ([2]; ivermectin LC25 at DPI 9, dissected day 14, not significant) was 4.4%, the “Effect of P. vivax infection on survivorship of An. dirus that ingested ivermectin” value [3] was “did not alter survivorship” and the LC5 ([4]; 7 days post blood meal) was 16.1 ng/mL. For the same substance, the LC25 ([4]; 7 days post blood meal) was 0.0218 µg/mL, the LC50 ([4]; 7 days post blood meal) was 0.0269 µg/mL and the “IRR (Incidence Rate Ratio of mortality at day 7, treatment group divided by control group)” value ([4]; ivermectin imbibed 4 ng/ml) was 0.3. For the same substance, the “IRR (Incidence Rate Ratio of mortality at day 7, treatment group divided by control group)” value ([4]; ivermectin imbibed 5 ng/ml) was 1.3, the “IRR (Incidence Rate Ratio of mortality at day 7, treatment group divided by control group)” value ([4]; ivermectin imbibed 6 ng/ml) was 0.3 and the “IRR (Incidence Rate Ratio of mortality at day 7, treatment group divided by control group)” value ([4]; ivermectin imbibed 8 ng/ml) was 0.6. The “IRR (Incidence Rate Ratio of mortality at day 7, treatment group divided by control group)” value ([4]; ivermectin imbibed 10 ng/ml) was 1.1, the “IRR (Incidence Rate Ratio of mortality at day 7, treatment group divided by control group)” value ([4]; ivermectin imbibed 12 ng/ml) was 0.9 and the “IRR (Incidence Rate Ratio of mortality at day 7, treatment group divided by control group)” value ([4]; ivermectin imbibed 15 ng/ml) was 2.1. The “IRR (Incidence Rate Ratio of mortality at day 7, treatment group divided by control group)” value ([4]; ivermectin imbibed 18 ng/ml) was 2.1, the “IRR (Incidence Rate Ratio of mortality at day 7, treatment group divided by control group)” value ([4]; ivermectin imbibed 20 ng/ml) was 2.7 and the “IRR (Incidence Rate Ratio of mortality at day 7, treatment group divided by control group)” value ([4]; ivermectin imbibed 22 ng/ml) was 2.3. The “IRR (Incidence Rate Ratio of mortality at day 7, treatment group divided by control group)” value ([4]; ivermectin imbibed 25 ng/ml) was 5.3, the “IRR (Incidence Rate Ratio of mortality at day 7, treatment group divided by control group)” value ([4]; ivermectin imbibed 28 ng/ml) was 5.2 and the “IRR (Incidence Rate Ratio of mortality at day 7, treatment group divided by control group)” value ([4]; ivermectin imbibed 30 ng/ml) was 8.0. For the same substance, the “IRR (Incidence Rate Ratio of mortality at day 7, treatment group divided by control group)” value ([4]; ivermectin imbibed 35 ng/ml) was 8.4, the “IRR (Incidence Rate Ratio of mortality at day 7, treatment group divided by control group)” value ([4]; ivermectin imbibed 40 ng/ml) was 9.4 and the LC5 ([5]; 7 days post blood meal) was 22.1 ng/mL. The LC25 ([5]; 7 days post blood meal) was 0.0381 µg/mL, the LC50 ([5]; 7 days post blood meal) was 0.0556 µg/mL and the “IRR (Incidence Rate Ratio of mortality at day 7, treatment group divided by control group)” value ([5]; ivermectin imbibed 20 ng/ml) was 2.8. The “IRR (Incidence Rate Ratio of mortality at day 7, treatment group divided by control group)” value ([5]; ivermectin imbibed 25 ng/ml) was 8.2, the “IRR (Incidence Rate Ratio of mortality at day 7, treatment group divided by control group)” value ([5]; ivermectin imbibed 30 ng/ml) was 4.7 and the “IRR (Incidence Rate Ratio of mortality at day 7, treatment group divided by control group)” value ([5]; ivermectin imbibed 35 ng/ml) was 24.4. For the same substance, the “IRR (Incidence Rate Ratio of mortality at day 7, treatment group divided by control group)” value ([5]; ivermectin imbibed 40 ng/ml) was 19.1, the “IRR (Incidence Rate Ratio of mortality at day 7, treatment group divided by control group)” value ([5]; ivermectin imbibed 45 ng/ml) was 21.4 and the “IRR (Incidence Rate Ratio of mortality at day 7, treatment group divided by control group)” value ([5]; ivermectin imbibed 50 ng/ml) was 32.3. The “IRR (Incidence Rate Ratio of mortality at day 7, treatment group divided by control group)” value ([5]; ivermectin imbibed 55 ng/ml) was 29.6, the “IRR (Incidence Rate Ratio of mortality at day 7, treatment group divided by control group)” value ([5]; ivermectin imbibed 60 ng/ml) was 36.1 and the “IRR (Incidence Rate Ratio of mortality at day 7, treatment group divided by control group)” value ([5]; ivermectin imbibed 65 ng/ml) was 44.5. For the same substance, the “IRR (Incidence Rate Ratio of mortality at day 7, treatment group divided by control group)” value ([5]; ivermectin imbibed 70 ng/ml) was 42.5, the “IRR (Incidence Rate Ratio of mortality at day 7, treatment group divided by control group)” value ([5]; ivermectin imbibed 80 ng/ml) was 46.8 and the “IRR (Incidence Rate Ratio of mortality at day 7, treatment group divided by control group)” value ([5]; ivermectin imbibed 85 ng/ml) was 55.7. The “IRR (Incidence Rate Ratio of mortality at day 7, treatment group divided by control group)” value ([5]; ivermectin imbibed 95 ng/ml) was 58.1, the “IRR (Incidence Rate Ratio of mortality at day 7, treatment group divided by control group)” value ([5]; ivermectin imbibed 100 ng/ml) was 64.3 and the LC5 ([6]; 7 days post blood meal) was 11.7 ng/mL. For the same substance, the LC25 ([6]; 7 days post blood meal) was 0.0189 µg/mL, the LC50 ([6]; 7 days post blood meal) was 0.0264 µg/mL and the “IRR (Incidence Rate Ratio of mortality at day 7, treatment group divided by control group)” value ([6]; ivermectin imbibed 3 ng/ml) was 0.8. For the same substance, the “IRR (Incidence Rate Ratio of mortality at day 7, treatment group divided by control group)” value ([6]; ivermectin imbibed 4 ng/ml) was 1.7, the “IRR (Incidence Rate Ratio of mortality at day 7, treatment group divided by control group)” value ([6]; ivermectin imbibed 5 ng/ml) was 1.4 and the “IRR (Incidence Rate Ratio of mortality at day 7, treatment group divided by control group)” value ([6]; ivermectin imbibed 6 ng/ml) was 1.0. The “IRR (Incidence Rate Ratio of mortality at day 7, treatment group divided by control group)” value ([6]; ivermectin imbibed 8 ng/ml) was 1.2, the “IRR (Incidence Rate Ratio of mortality at day 7, treatment group divided by control group)” value ([6]; ivermectin imbibed 10 ng/ml) was 1.0 and the “IRR (Incidence Rate Ratio of mortality at day 7, treatment group divided by control group)” value ([6]; ivermectin imbibed 15 ng/ml) was 1.8. The “IRR (Incidence Rate Ratio of mortality at day 7, treatment group divided by control group)” value ([6]; ivermectin imbibed 18 ng/ml) was 2.7, the “IRR (Incidence Rate Ratio of mortality at day 7, treatment group divided by control group)” value ([6]; ivermectin imbibed 20 ng/ml) was 2.5 and the “IRR (Incidence Rate Ratio of mortality at day 7, treatment group divided by control group)” value ([6]; ivermectin imbibed 22 ng/ml) was 3.4. The “IRR (Incidence Rate Ratio of mortality at day 7, treatment group divided by control group)” value ([6]; ivermectin imbibed 25 ng/ml) was 3.4, the “IRR (Incidence Rate Ratio of mortality at day 7, treatment group divided by control group)” value ([6]; ivermectin imbibed 30 ng/ml) was 2.5 and the “IRR (Incidence Rate Ratio of mortality at day 7, treatment group divided by control group)” value ([6]; ivermectin imbibed 35 ng/ml) was 2.5. For the same substance, the “IRR (Incidence Rate Ratio of mortality at day 7, treatment group divided by control group)” value ([6]; ivermectin imbibed 45 ng/ml) was 4.9, the “IRR (Incidence Rate Ratio of mortality at day 7, treatment group divided by control group)” value ([6]; ivermectin imbibed 50 ng/ml) was 5.3 and the “Simulated average peak concentration” value [7] was 108.1 ng/mL.
